≈ marks a conversion by molar mass, not a printed value.
Columns and labels:
Type in all cases: cell-based
[1] = system: Staphylococcus aureus A-5278; test: In vitro agar dilution MIC, organism code CC; conditions: unit assumed
Procedure, shortened: (§1)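 Growth on twelve drug-containing BHI agar plates was compared with drug-free controls after incubation at 35-37° C for 20 to 24 hours. Inocula were 1:100 dilutions, or 1:10 for slow-growing strains. The MIC allowed slight haze or sparsely isolated colonies.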

[2] = system: Staphylococcus aureus CMX 642A; test: In vitro agar dilution MIC, organism code DD; conditions: Table 1B, unit assumed
Procedure, shortened: as §1

[3] = system: Streptococcus pyogenes PIU 2548; test: In vitro agar dilution MIC, organism code NN; conditions: unit assumed
Procedure, shortened: as §1

[4] = system: Micrococcus luteus ATCC 9341; test: In vitro agar dilution MIC, organism code OO; conditions: Table 1B, unit assumed
Procedure, shortened: as §1

Escherichia coli JUHL = test: In vitro agar dilution MIC, organism code QQ; conditions: Table 1B, in µg/mL (unit assumed)
Procedure, shortened: as §1

[5] = system: Staphylococcus aureus ATCC 6538P; test: In vitro agar dilution MIC, organism code AA; conditions: unit assumed
Procedure, shortened: as §1

[6] = system: Staphylococcus aureus 1775; test: In vitro agar dilution MIC, organism code GG; conditions: Table 1B, unit assumed
Procedure, shortened: as §1

[7] = system: Streptococcus agalactiae CMX 508; test: In vitro agar dilution MIC, organism code KK; conditions: Table 1B, unit assumed
Procedure, shortened: as §1

Escherichia coli SS = test: In vitro agar dilution MIC, organism code RR; conditions: Table 1B, in µg/mL (unit assumed)
Procedure, shortened: as §1

[8] = system: Micrococcus luteus ATCC 4698; test: In vitro agar dilution MIC, organism code PP; conditions: Table 1B, in µg/mL (unit assumed)
Procedure, shortened: as §1

[9] = system: Streptococcus pyogenes 930; test: In vitro agar dilution MIC, organism code MM; conditions: unit assumed
Procedure, shortened: as §1

[10] = system: Streptococcus pneumoniae GYR 1171; test: In vitro agar dilution MIC, organism code YY; conditions: Table 1B, unit assumed
Procedure, shortened: as §1

[11] = system: Mycobacterium smegmatis ATCC 114; test: In vitro agar dilution MIC, organism code UU; conditions: Table 1B, in µg/mL (unit assumed)
Procedure, shortened: as §1

Candida albicans CCH 442 = test: In vitro agar dilution MIC, organism code TT; conditions: Table 1B, unit assumed
Procedure, shortened: as §1

[12] = system: Staphylococcus aureus A5177; test: In vitro agar dilution MIC, organism code BB; conditions: in µg/mL (unit assumed)
Procedure, shortened: as §1

[13] = system: Staphylococcus epidermidis 3519; test: In vitro agar dilution MIC, organism code HH; conditions: Table 1B, in µg/mL (unit assumed)
Procedure, shortened: as §1

[14] = system: Staphylococcus aureus NCTC10649M; test: In vitro agar dilution MIC, organism code EE; conditions: Table 1B, unit assumed
Procedure, shortened: as §1

[15] = system: Haemophilis influenzae DILL AMP R; test: In vitro agar dilution MIC, organism code WW; conditions: unit assumed
Procedure, shortened: as §1

[16] = system: Streptococcus pneumoniae ATCC 6303; test: In vitro agar dilution MIC, organism code XX; conditions: unit assumed
Procedure, shortened: as §1

Escherichia coli DC-2 = test: In vitro agar dilution MIC, organism code SS; conditions: Table 1B, unit assumed
Procedure, shortened: as §1

[17] = system: Streptococcus pneumoniae 5649; test: In vitro agar dilution MIC, organism code ZZA; conditions: unit assumed
Procedure, shortened: as §1

[18] = system: Streptococcus bovis A-5169; test: In vitro agar dilution MIC, organism code JJ; conditions: Table 1B, unit assumed
Procedure, shortened: as §1

[19] = system: Streptococcus pyogenes EES61; test: In vitro agar dilution MIC, organism code LL; conditions: unit assumed
Procedure, shortened: as §1

[20] = system: Enterococcus faecium ATCC 8043; test: In vitro agar dilution MIC, organism code II; conditions: Table 1B, unit assumed
Procedure, shortened: as §1

[21] = system: Nocardia asteroides ATCC 9970; test: In vitro agar dilution MIC, organism code VV; conditions: Table 1B, in µg/mL (unit assumed)
Procedure, shortened: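 Agar dilution was run in BHI agar with twelve serial compound dilutions, using a replicator-spotted 1:100 inoculum (1:10 for streptococci). Plates were incubated 20-24 h at 35-37 °C with erythromycin A as class control. MIC was the lowest concentration giving no growth, slight haze or sparse colonies.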

[22] = system: Staphylococcus aureus CMX 553; test: In vitro agar dilution MIC, organism code FF; conditions: Table 1B, unit assumed
Procedure, shortened: as §1

[23] = system: Streptococcus pneumoniae 5979; test: In vitro agar dilution MIC, organism code ZZ; conditions: unit assumed
Procedure, shortened: as §1

SMILES	MIC ([1]; Table 1B) [µg/mL]	MIC [2] [µg/mL]	MIC ([3]; Table 1B) [µg/mL]	MIC [4] [µg/mL]	MIC (Escherichia coli JUHL)	MIC ([5]; Table 1B) [µg/mL]	MIC [6] [µg/mL]	MIC [7] [µg/mL]	MIC (Escherichia coli SS)	MIC [8]	MIC ([9]; Table 1B) [µg/mL]	MIC [10] [µg/mL]	MIC [11]	MIC (Candida albicans CCH 442) [µg/mL]	MIC ([12]; Table 1B)	MIC [13]	MIC [14] [µg/mL]	MIC ([15]; Table 1B) [µg/mL]	MIC ([16]; Table 1B) [µg/mL]	MIC (Escherichia coli DC-2) [µg/mL]	also measured
CC[C@H]1OC(=O)C(C)(Cl)C(=O)[C@H](C)[C@@H](O[C@@H]2O[C@H](C)C[C@H](N(C)C)[C@H]2O)[C@](C)(OC)C[C@@H](C)C2=NCCN3C(=O)O[C@@]1(C)[C@H]3[C@H]2C (stereo partly shown) [Example 2]	> 100	50 (≈ 74.4 µM)	6.2 (≈ 9.22 µM)	3.1 (≈ 4.61 µM)	> 100	25 (≈ 37.2 µM)	> 100	3.1 (≈ 4.61 µM)	0.78	6.2	> 100	4 (≈ 5.95 µM)	> 100	> 100	25	25	25 (≈ 37.2 µM)	32 (≈ 47.6 µM)	4 (≈ 5.95 µM)	> 100	MIC ([1]; Table 1C): > 100 µg/mL; MIC ([3]; Table 1C): 16 µg/mL (≈ 23.8 µM); MIC ([5]; Table 1C): 25 µg/mL (≈ 37.2 µM); MIC ([9]; Table 1C): 128 µg/mL (≈ 190 µM); MIC ([12]; Table 1C): 25; MIC ([15]; Table 1C): 32 µg/mL (≈ 47.6 µM); MIC ([16]; Table 1C): 4 µg/mL (≈ 5.95 µM); MIC ([17]; Table 1B): 4 µg/mL (≈ 5.95 µM); MIC ([17]; Table 1C): 4 µg/mL (≈ 5.95 µM); MIC [18]: 1.56 µg/mL (≈ 2.32 µM); MIC ([19]; Table 1B): 3.1 µg/mL (≈ 4.61 µM); MIC ([19]; Table 1C): 4 µg/mL (≈ 5.95 µM); MIC [20]: 12.5 µg/mL (≈ 18.6 µM); MIC [21]: 50; MIC [22]: 25 µg/mL (≈ 37.2 µM); MIC ([23]; Table 1B): > 128 µg/mL; MIC ([23]; Table 1C): > 128 µg/mL
CC[C@H]1OC(=O)[C@@](C)(F)C(=O)[C@H](C)[C@@H](O[C@@H]2O[C@H](C)C[C@H](N(C)C)[C@H]2O)[C@](C)(OC/C=C/c2cnc3ccc(NC(=O)OC(C)(C)C)cc3c2)C[C@@H](C)C(=O)[C@H](C)[C@H]2NC(=O)O[C@@]21C [Example 8]	> 100	0.39 (≈ 0.434 µM)	0.39 (≈ 0.434 µM)	0.05 (≈ 0.0556 µM)	> 100	0.39 (≈ 0.434 µM)	> 100	0.05 (≈ 0.0556 µM)	6.2	0.39	12.5 (≈ 13.9 µM)	0.06 (≈ 0.0667 µM)	0.78	> 100	0.39	0.39	0.39 (≈ 0.434 µM)	16 (≈ 17.8 µM)	0.06 (≈ 0.0667 µM)	> 100	MIC ([17]; Table 1B): 1 µg/mL (≈ 1.11 µM); MIC [18]: 0.05 µg/mL (≈ 0.0556 µM); MIC ([19]; Table 1B): 0.05 µg/mL (≈ 0.0556 µM); MIC [20]: 0.2 µg/mL (≈ 0.222 µM); MIC [21]: 0.78; MIC [22]: 0.39 µg/mL (≈ 0.434 µM); MIC ([23]; Table 1B): 16 µg/mL (≈ 17.8 µM)
CC[C@H]1OC(=O)[C@@](C)(F)C(=O)[C@H](C)[C@@H](O[C@@H]2O[C@H](C)C[C@H](N(C)C)[C@H]2O)[C@](C)(OC/C=C/c2cnc3ccc(C=NN=C(C)C)cc3c2)C[C@@H](C)C(=O)[C@H](C)[C@H]2NC(=O)O[C@@]21C [Example 20]	> 100	0.1 (≈ 0.115 µM)	0.2 (≈ 0.231 µM)	0.02 (≈ 0.0231 µM)	> 100	0.1 (≈ 0.115 µM)	> 100	0.02 (≈ 0.0231 µM)	0.78	0.1	1.56 (≈ 1.8 µM)	0.06 (≈ 0.0693 µM)	0.78	> 100	0.1	0.2	0.2 (≈ 0.231 µM)	4 (≈ 4.62 µM)	0.125 (≈ 0.144 µM)	> 100	MIC ([17]; Table 1B): 1 µg/mL (≈ 1.15 µM); MIC [18]: 0.01 µg/mL (≈ 0.0115 µM); MIC ([19]; Table 1B): 0.02 µg/mL (≈ 0.0231 µM); MIC [20]: 0.1 µg/mL (≈ 0.115 µM); MIC [21]: 0.02; MIC [22]: 0.1 µg/mL (≈ 0.115 µM); MIC ([23]; Table 1B): 2 µg/mL (≈ 2.31 µM)
CC[C@H]1OC(=O)[C@@](C)(F)C(=O)[C@H](C)[C@@H](O[C@@H]2O[C@H](C)C[C@H](N(C)C)[C@H]2O)[C@](C)(OC/C=C/c2cnc3ccc([N+](=O)[O-])cc3c2)C[C@@H](C)C(=O)[C@H](C)[C@H]2NC(=O)O[C@@]21C [Example 6]	100 (≈ 121 µM)	0.05 (≈ 0.0603 µM)	0.05 (≈ 0.0603 µM)	0.01 (≈ 0.0121 µM)	25	0.05 (≈ 0.0603 µM)	100 (≈ 121 µM)	0.02 (≈ 0.0241 µM)	0.05	0.05	0.39 (≈ 0.47 µM)	≤ 0.004	0.1	100 (≈ 121 µM)	0.05	0.05	0.1 (≈ 0.121 µM)	2 (≈ 2.41 µM)	≤ 0.004	25 (≈ 30.2 µM)	MIC ([17]; Table 1B): 0.125 µg/mL (≈ 0.151 µM); MIC [18]: 0.01 µg/mL (≈ 0.0121 µM); MIC ([19]; Table 1B): ≤ 0.005 µg/mL; MIC [20]: 0.05 µg/mL (≈ 0.0603 µM); MIC [21]: 0.02; MIC [22]: 0.05 µg/mL (≈ 0.0603 µM); MIC ([23]; Table 1B): 1 µg/mL (≈ 1.21 µM)

Source: patent US6124269A, “2-Halo-6-O-substituted ketolide derivatives” (priority 1998, dated 2000)
